Assays:
Type in all cases: in vivo
Musca domestica = experiment: Test Example 8: treated filter paper with sucrose bait, Musca domestica; conditions: 500 ppm, 0.7 ml on filter paper, female imagoes, after 24 hours
Experimental: The formulations of Compounds of Present Invention 1, 9, 15 to 16, 19, 22, 24, 31 to 32, 34, 41 and 45 to 46 as produced in Formulation Example 5 were diluted with water, so as to have a concentration of the active ingredient of 500 ppm, to prepare each test drug solution.
(§1) A filter paper having a diameter of 5.5 cm was spread on the bottom of a polyethylene cup having the same diameter and 0.7 ml of the test drug solution was added dropwise onto the filter paper, and 30 mg of sucrose was uniformly placed as bait. Into the polyethylene cup, 10 female imagoes of Musca domestica were released, and the cup was sealed with a lid. After 24 hours, the life and death of Musca domestica was examined, the number of dead insects was counted, and the death rate was calculated according to the following equation. Death rate (%)=(Number of dead insects/Number of tested insects)×100

[1] = test system: Haemaphysalis longicornis; experiment: Test Example 11: coated screw tube contact test, Haemaphysalis longicornis ticks; conditions: 2 mg compound coated on inner wall of screw tube, unfed nymphal ticks, after 2 days
Experimental: Two milligrams of each of Compounds of Present Invention 8 to 9, 20, 22 and 31 to 32 was weighed out in a screw tube (Maruemu No. 5; 27×55 mm), and 0.2 mL of acetone was added thereto, and the screw tube was sealed with a cap to dissolve the compound. The screw tube was rotated and inverted to uniformly coat the drug solution onto the whole inner wall of the tube. After removing the cap, the solution was air-dried for about 2 hours, then unfed nymphal ticks, Haemaphysalis longicornis (5 ticks/group) were released, and the tube was sealed with the cap. After 2 days, the number of dead insects was counted, and the death rate was calculated according to the following equation: Death rate (%)=100×(Number of dead insects/Number of tested insects)

Blattella germanica = experiment: Test Example 9: treated filter paper with sucrose bait, Blattella germanica; conditions: 500 ppm, 0.7 ml on filter paper, male imagoes, after 6 days
Experimental: The formulations of Compounds of Present Invention 9, 15 to 16, 19, 22, 30 to 32, 34, 41 and 45 to 46 as produced in Formulation Example 5 were diluted with water, so as to have a concentration of the active ingredient of 500 ppm, to prepare each test drug solution.
as §1, with “2 male” for “10 female”, “Blattella germanica” for “Musca domestica”, “6 days,” for “24 hours,”

| SMILES | death rate (Musca domestica) [%] | death rate [1] [%] | death rate (Blattella germanica) [%] |
| --- | --- | --- | --- |
| CCS(=O)(=O)c1cc(NC(=O)OCc2ccccc2)cnc1-c1nc2cc(C(F)(F)F)cnc2n1C [compound 1] | 100 |  |  |
| CCS(=O)(=O)c1cc(NC(=O)C2CCC2)cnc1-c1nc2cc(C(F)(F)F)cnc2n1C [compound 8] |  | 100 |  |
| CCS(=O)(=O)c1cc(NC2CC2)cnc1-c1nc2cc(C(F)(F)F)cnc2n1C [compound 9] | 100 | 100 | 100 |
| CCS(=O)(=O)c1cc(NNC(=O)OC)cnc1-c1nc2cc(C(F)(F)F)cnc2n1C [compound 15] | 100 |  | 100 |
| CCS(=O)(=O)c1cc(NC(=O)C(=O)N(C)C)cnc1-c1nc2cc(C(F)(F)F)cnc2n1C [compound 16] | 100 |  | 100 |
| CCS(=O)(=O)c1cc(NN)cnc1-c1nc2cc(C(F)(F)F)cnc2n1C [compound 19] | 100 |  | 100 |
| CCS(=O)(=O)c1cc(NCC2CCOC2)cnc1-c1nc2cc(C(F)(F)F)cnc2n1C (stereo not drawn) [compound 20] |  | 100 |  |
| CCS(=O)(=O)c1cc(NC(=O)C2CC2)cnc1-c1nc2cc(C(F)(F)F)cnc2n1C [compound 22] | 100 | 100 | 100 |
| CCS(=O)(=O)c1cc(NC(=O)c2ccccn2)cnc1-c1nc2cc(C(F)(F)F)cnc2n1C [compound 24] | 100 |  |  |
| CCS(=O)(=O)c1ccc(NOC)nc1-c1nc2cc(C(F)(F)F)cnc2n1C [compound 30] |  |  | 100 |
| CCS(=O)(=O)c1ccc(NC2CC2)nc1-c1nc2cc(C(F)(F)F)cnc2n1C [compound 31] | 100 | 100 |  |
| CCS(=O)(=O)c1ccc(NC2CC2)nc1-c1nc2cc([S+]([O-])C(F)(F)F)ccc2o1 (stereo not drawn) [compound 32] | 100 | 100 | 100 |
| CCS(=O)(=O)c1ccc(NCc2ccccc2)nc1-c1nc2cc([S+]([O-])C(F)(F)F)ccc2o1 (stereo not drawn) [compound 34] | 100 |  | 100 |
| CCS(CC)=Nc1ccc(S(=O)(=O)CC)c(-c2nc3cc([S+]([O-])C(F)(F)F)ccc3o2)n1 (stereo not drawn) [compound 41] | 100 |  | 100 |
| CCS(=O)(=O)c1ccc(NC(=O)C2CC2)nc1-c1nc2cc([S+]([O-])C(F)(F)F)ccc2o1 (stereo not drawn) [compound 45] | 100 |  | 100 |
| CCS(=O)(=O)c1ccc(NCc2ccc(Cl)nc2)nc1-c1nc2cc([S+]([O-])C(F)(F)F)ccc2o1 (stereo not drawn) [compound 46] | 100 |  | 100 |

Source: patent US9920050B2, “Fused heterocyclic compound and pest control use thereof” (Sumitomo Chemical Company, Limited, priority 2013, dated 2018)
